Assay results as given in patent publication US11959104B2, “Methods of differentiating stem cell-derived ectodermal lineage precursors” (MEMORIAL SLOAN-KETTERING CANCER CENTER, priority 2016, dated 2024).
Entries after “also recorded” stand apart in the source; their conditions may differ. Where two headings read alike, the source gives them in different places. Ends that are not written are not given here.

Assays:
[1] = test system: hPSC-derived cranial placode; experiment: Pituitary placode induction, day 15 (qRT-PCR, immunofluorescence); assay type: cell-based; conditions: for induction of anterior pituitary genes / lineage markers: from day 4, day 15 analysis
Procedure: For pituitary differentiation cells were plated at 250 000 cells/cm^2 on VTN-N coated dishes (differentiation works best in 24 well plates) in E8+10 μM Y-27632. After 24 h (day 0) medium was changed to E6 supplemented with 10 μM SB431542 and 5 ng/ml BMP4 (R&D Systems). Medium was changed every day. On day 3 BMP4 was removed from the medium and cells were cultured for 1 day in E6+10 μM SB431542. For the standard differentiation conditions, on day 4 E6 was supplemented with 10 μM SB431542, 200 ng/ml SHH (R&D Systems, C25II), 100 ng/ml FGF8b (R&D Systems) and 50 ng/ml FGF10 (Peprotech Inc.). For some experiments SHH was replaced by 1 μM purmorphamine (Stemgent) or 1 μM SAG (Stemcell Technologies). From now on medium volume was doubled and cells were feed every other day until day 15. On day 15 of differentiation SIX1 H2B::GFP^+ cells were sorted using a BDFACS Aria III cell sorter. Purified cells were then plated as droplets (50 000 cells/10 μl drop) in E6 supplemented with 10 Y-27632, 200 ng/ml SHH, 100 ng/ml FGF8b and 50 ng/ml FGF10 on polyornithine/laminin/fibronectin-coated plates. After 24 h medium was changed to E6 containing SHH, FGF8 and FGF10 until day 30. Medium was changed every other day. For some experiments pituitary induction was started slightly later (day 6) or cells were differentiated in medium conditioned by hypothalamic neuroectoderm from either day 4 or day 6 on. For the co-culture experiment SIX1 H2B::GFP positive cells were sorted on day 6 and 50 000 cells/cm^2 were plated directly on hypothalamic neuroectodermal cells in E6 only supplemented with 10 SB431542.
Total RNA was extracted from at least 3 independent experiments using the TRIzol (Fisher Scientific) reagent in combination with Phase-lock tubes (5Prime) according to the manufactures protocol. 1 μg of total RNA was reverse transcribed into cDNA using iScript (BioRad). For quantitative RT PCR we used the SSoFast EvaGreen Mix (BioRad) in combination with QuantiTect primer assays (Qiagen) on a BioRad CFX96 Thermal Cycler. All reactions were run according to the manufacturer's protocol. Results are calculated using the ΔΔCt method (Livak and Schmittgen, 2001).
After washing the cells once with PBS, cells were fixed with 4% (v/v) paraformaldehyde for 20 min, washed twice with PBS, permeabilized using 0.1% (v/v) Triton X-100 in PBS, Cells were blocked with 10% (v/v) FCS in PBS for 1-5 h at room temperature. Cells were incubated with primary antibodies diluted in 2% FCS (v/v) in PBS at 4° C. overnight. A list of the primary antibodies used in this study is provided as FIG. 28. […] After and additional 2 washing steps, fluorescence images of the cells were taken using an Olympus IX71 inverted microscope equipped with a Hamamatsu ORCA CCD camera.

[2] = test system: Six1::H2B-GFP reporter line; experiment: LOPAC small molecule screen and validation for enhanced CP induction
Procedure: All differentiations starting from E8 were dissociated into single cells using EDTA and replated at high density in E8 with the ROCK inhibitor (Tocris). Cells were typically seeded at a density of 200,000 cells/cm^2 on Matrigel coated dishes. Switching from E8 to E6 triggered differentiations (i.e. d0). Neuroectoderm (NE) formation was generated by culturing the cells in E6 with 10 nM SB and 500 nM LDN until d12. Neural Crest (NC) was first treated with 10 nM SB, 600 nM CHIR and 1 ng/ml BMP4 from d0-d2. […] Lens placode was first treated with 10 nM SB and 5 ng/ml BMP4 from d0-d2. At d2, cells were maintained in 10 nM SB with 100 ng/ml FGF2 until d12. Trigeminal placode was first treated with 10 nM SB and 5 ng/ml BMP4 from d0-d2. At d2, CHIR was added to the SB and BMP4 until d4. Finally, non-neural ectoderm (NNE) was treated with 10 nM SB, 10 nM SU5402 and 20 ng/ml BMP4 until d12.

[3] = test system: hPSC-derived pituitary cells; experiment: Stimulation of hormone release in vitro (ELISA); assay type: cell-based, human; conditions: day 30 of differentiation
Procedure: To stimulate hormone release in vitro, cells were differentiated in 24 well plates as described above. On day 30 of differentiation cells were washed once with PBS and 250 μl of fresh medium containing either the solvent or the stimulant were added to each well. After 12 h the supernatant was removed and centrifuged for 5 min at 2000 g to pellet debris. Supernatant was transferred into fresh reaction tubes, flash frozen and stored at −80° C. until ELISA measurements. Stimulants used were: CRF (Tocris, 1 μM), Stressin I (Tocris, 2 μM), Ghrelin (Tocris, 1 μM), Somatocrinin (Accurate Chemical, 1 μg/ml), Nafarelin (Tocris, 1 μM) and Urocortin (Tocris, 500 nM).
Hormone concentration in the supernatant of cells or in animal serum was analyzed using ELISA measurements. Hormone concentration in the cell culture supernatant was assessed using traditional single hormone ELISA Kits according to the manufactures manual. ACTH (Calbiotech, detects rat and human ACTH), hGH (R&D Systems, human specific), FSH (Calbiotech, FSH (lumELISA, human specific) and corticosterone (Abcam). Plates were read using an EnSpire Multimode plate reader (PerkinElmer). Hormone concentration in in vivo samples was analyzed using either traditional ELISA (for ACTH only, serum diluted 1:2) or species specific (human or rat) Milliplex multiplex ELISA using Luminex technology (Millipore). Magnetic bead-based sandwich immunoassay was performed according to the manufactures manual. 25 μl of undiluted serum samples in duplicate wells were analyzed by Luminex FlexMap 3D (Luminex Corp, Austin, TX). Cytokine concentrations were determined by Luminex Xponent 4.1 and EMD-Millipore Milliplex Analyst v5.1 using 5-p log analysis.

hPSCs = experiment: Toxicity of KSR-protocol small molecule concentrations in E6 differentiation; assay type: cell-based, human; conditions: original KSR-protocol concentration used in E6
Description: To transition these protocols into the more defined E6 media, we adapted hPSCs in E8 for multiple passages and simply replaced the KSR-based medium with an E6 based differentiation while maintaining factors and concentrations as described previously to trigger the 4 major ectodermal lineages (FIG. 9A). […] After determining an optimal non-toxic concentration for each of the small molecules we observed that NE formation under E6 conditions was equivalent to that obtained with KSR-based conditions. […] We compared the efficiency of generating PAX6 positive cells using either no small molecules, using dSMADi or using the single TGFβ inhibitor SB431542 (SB). We found robust PAX6 expression in the absence of dSMADi (˜40% of total cells on day 12 post induction). However, the percentage of cells expressing PAX6 was further improved upon addition of SB or dSMADi to nearly 90% and 80%, respectively (FIGS. 1E and 9B).

hPSC [4] = experiment: Neural crest induction, SOX10 positive cells; assay type: cell-based, human
Procedure: (§1) All differentiations starting from E8 were dissociated into single cells using EDTA and replated at high density in E8 with the ROCK inhibitor (Tocris). Cells were typically seeded at a density of 200,000 cells/cm^2 on Matrigel coated dishes. Switching from E8 to E6 triggered differentiations (i.e. d0). Neuroectoderm (NE) formation was generated by culturing the cells in E6 with […] and 500 nM LDN until d12. Neural Crest (NC) was first treated with […], 600 nM CHIR and 1 ng/ml BMP4 from d0-d2. At d2, cells were maintained in […] with 1.5 uM CHIR until d12. Lens placode was first treated with […] and 5 ng/ml BMP4 from d0-d2. At d2, cells were maintained in […] with 100 ng/ml FGF2 until d12. Trigeminal placode was first treated with […] and 5 ng/ml BMP4 from d0-d2. At d2, CHIR was added to the SB and BMP4 until d4. Finally, non-neural ectoderm (NNE) was treated with 10 nM SB, 10 nM SU5402 and 20 ng/ml BMP4 until d12.

hPSC [5] = experiment: BMP dose response for TFAP2A, NNE and CP induction in E6 media; assay type: cell-based, human
Procedure: as §1

[6] = three-day pulse with SB431542, dose-response

For `CNC1CCC(N(Cc2cccc(-c3ccncc3)c2)C(=O)c2sc3ccccc3c2Cl)CC1` (centres unmarked) [SAG], the “induction of anterior pituitary genes / lineage markers” value [1] was “robust induction of anterior pituitary-lineage markers” and the cell death ([1]; small-molecule-based induction replacing SHH) was “increase in cell death”.

In the case of `c1cnc2c(c1)ccc1cccnc12` [Phenantroline], the “percentage of cells expressing Six1 (hit validation)” value ([2]; CP protocol) is reported as “confirmed to reliably enhance the percentage of cells expressing Six1”, the Six1 positive cells ([2]; CP protocol in the absence of FGF2, control 18%) is reported as 69% and the “expression of Six1 versus control differentiations (primary screen hit)” value ([2]; LOPAC screen, CP protocol) is reported as “increased expression of SIX1”. The “fold increase of Six1 positive cells” value ([2]; absence of FGF2, 69% versus 18%) was ~4 fold, the “expression of other lineage markers such as Sox10, T, MyoD or Sox17” value ([2]; differentiation towards CP) was “without inducing the expression of other lineage markers” and the “increase in Six1 expression over controls” value ([2]; differentiation towards CP) was “five-fold”.

“Ghrelin: stimulant of hormone release (Tocris, 1 μM) (GSSFLSPEHQRVQQRKESKKPPAKLQPR; also: octanoylated, site not given here; UniProt Q9UBU3 24-51, looked up)” was tested, and the ACTH release [3] was “did not trigger ACTH release”.

`Cc1c[nH]c(/C=C2\C(=O)Nc3ccccc32)c1CCC(=O)O` [SU5402, 2-[(1,2-Dihydro-2-oxo-3H-indol-3-ylidene)methyl]-4-methyl-1H-pyrrole-3-pr-opanoic acid] was tested, and the “cell killing during differentiation” value (hPSCs) was “effectively killed the cells”.

In the case of “CRF: stimulant of hormone release (Tocris, 1 μM) (SEEPPISLDLTFHLLREVLEMARAEQLAQQAHSNRKLMEII; ends and bridges not checked; UniProt P06850 154-194, looked up)”, the ACTH release [3] is reported as “induced release of ACTH; also recorded: specifically induced”.

“Urocortin: stimulant of hormone release (Tocris, 500 nM) (DNPSLSIDLTFHLLRTLLELARTQSQRERAEQNRIIFDSV; ends and bridges not checked; UniProt P55089 83-122, looked up)” was tested, and the ACTH release [3] was “specifically induced” and the ACTH release ([3]; listed as urocortin) was “induced release of ACTH”.

`c1ccc2c(Oc3nc(Nc4ccc(N5CCOCC5)cc4)c4ncn(C5CCCCC5)c4n3)cccc2c1` [purmorphamine] was tested, and the cell death [1] was “increase in cell death” and the “induction of anterior pituitary genes / lineage markers” value [1] was “robust induction of anterior pituitary-lineage markers”.

For “Somatocrinin: stimulant of hormone release (Accurate Chemical, 1 μg/ml) (YADAIFTNSYRKVLGQLSARKLLQDIMSRQQGESNQERGARARL; ends and bridges not checked; UniProt P01286 32-75, looked up)”, the GH release [3] was “induced”, the ACTH release ([3]; listed as somatocrinin) was “did not trigger ACTH release” and the GH release ([3]; listed as somatocrinin) was “triggered robust increase in GH release”.

B1: BMP4: activator of BMP signaling (protein, UniProt P12644 293-408, looked up)
Bone morphogenetic protein 4: SPKHHSQRARKKNKNCRRHSLYVDFSDVGWNDWIVAPPGYQAFYCHGDCPFPLADHLNSTNHAIVQTLVNSVNSSIPKACCVPTELSAISMLYLDEYDKVVLKNYQEMVVEGCGCR
With B1 the “SOX10 positive NC population generated” value (hPSC [4]; short pulse of BMP4 (1 ng/ml) with Wnt activation and SB431542) was “nearly homogenous SOX10 positive NC population”, the “BMP4 concentration giving strong NC induction” value (hPSC [4]; [6]) was “around 1 ng/ml” and the “BMP4 concentration optimal for CP induction” value (hPSC [5]; [6]) was “around 5 ng/ml”.

B2: BMP: BMP signaling activator used in E6 media, BMP4 per methods (protein, UniProt P12644 293-408, looked up)
Bone morphogenetic protein 4: B1 Bone morphogenetic protein 4
In the case of B2, the “marker phenotype at high BMP (NNE)” value (hPSC [5]; 20 ng/ml BMP) is reported as “cells become TFAP2A positive and lack the expression of SOX10 and SIX1” and the TFAP2A expression (hPSC [5]; within three days, with SB431542 in E6 media, dose dependent) is reported as “rapidly upregulated”.
